Results: patent US20250099420A1, “SMALL MOLECULE MODULATORS OF GPR139 COMPLEX” (University of Florida Research Foundation, Incorporated, priority 2022, published 2025)
Where two headings read alike, the source gives them in different places.

Assays:
[1] = tested on: parental HEK cells; assay: HEK parental Antagonist Counterscreen Assay (non-transfected cells, acetylcholine control); assay type: cell-based; conditions: for EC50: Homo sapiens, HEK293, acetylcholine as control, scientific notation, molarity
Text: C. […] The HEK parental counterscreen utilized the same cells but not transfected with the plasmid. The agonist and antagonist modes were run the same way as the primary screen but acetylcholine was used in place of GPR139 agonist as the control compound.
The HEK parental counterscreen utilized the same cells but not transfected with the plasmid. The antagonist modes assays utilized the cells being plated in the 1536 well plate overnight in growth media prior to dye loading in PDL coated plates and acetylcholine was used in place of GPR139 agonist as the control compound.
(§1) The HEK parental counterscreen utilized the same cells but not transfected with the plasmid. Acetylcholine was used in place of GPR139 agonist as the control compound. The cells were plated overnight, similar to the HEK antagonist counterscreen protocol.
The HEK parental counterscreens utilized the same cells but not transfected with the plasmid. Acetylcholine was used in place of GPR139 agonist as the control compound. The cells were plated overnight, similar to the HEK antagonist counterscreen protocol.
(§2) For each test compound, percent activation was plotted against compound concentration. A four parameter equation describing a sigmoidal dose-response curve was then fitted with adjustable baseline using Assay Explorer software (Symyx Technologies Inc.).

[2] = target: T1, GPR139 (Homo sapiens, UniProt Q6DWJ6); assay: GPR139 Agonist titration / agonist counterscreen assay (calcium detection, HEK-GPR139 cells); assay type: cell-based; set-up: expressed in transfected cells; host or cells: HEK Aequorin cells, Maxcyte transient transfection; conditions: agonist counterscreen of the antagonists; for EC50: scientific notation, molarity, read-out: GRP139 Agonist activity EC50
T1 sequence (Q6DWJ6 1-353): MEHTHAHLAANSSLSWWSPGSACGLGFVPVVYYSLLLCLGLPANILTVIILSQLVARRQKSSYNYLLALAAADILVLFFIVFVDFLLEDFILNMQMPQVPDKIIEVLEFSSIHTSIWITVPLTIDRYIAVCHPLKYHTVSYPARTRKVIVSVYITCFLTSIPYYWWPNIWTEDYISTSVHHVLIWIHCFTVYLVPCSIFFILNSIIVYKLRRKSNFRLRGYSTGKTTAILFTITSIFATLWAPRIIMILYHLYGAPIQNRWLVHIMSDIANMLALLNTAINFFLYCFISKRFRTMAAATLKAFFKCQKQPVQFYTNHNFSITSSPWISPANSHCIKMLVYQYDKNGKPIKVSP
Method: GPR activity was assessed using a calcium detection assay. […] Negative control samples were treated with DMSO. […] Intracellular calcium was measured using Calcium 5.

[3] = target: T1, GPR139; assay: GPR139 Antagonist titration assay (calcium detection, HEK-GPR139 cells, vs EC80 of S-JNJ-63533054); conditions: for GPR139 Antagonist Activity Averaged Max % Response (±St. Dev.): activity relative to known control; for GPR139 Antagonist Activity Hill Slope: fitted dose-response curve; for GPR139 Antagonist Activity Lipophilic Efficiency (logD): based on logD; for GPR139 Antagonist Activity Lipophilic Efficiency (logP): based on logP
Method: (§3) GPR activity was assessed using a calcium detection assay. GPR139 agonists stimulate an increase in intracellular calcium in HEK-GPR139 cells. Agonists increase the release of intracellular calcium, while antagonists decrease the release of intracellular calcium, as compared to an EC80 stimulation of the know agonist S-JNJ-63533054. The positive control for the agonist mode was cells treated with EC100 of known agonist S-JNJ-63533054. Negative control samples were treated with DMSO. The antagonist high control in cells was EC80 of S-JNJ-63533054+IC100 S-JNJ-3792165, while cells were treated with EC80 of S-JNJ-63533054+DMSO for the low control. Intracellular calcium was measured using Calcium 5.
(§4) HEK cells were transfected the DNA encoding GPR139 and incubated for 24 hours. 3000 cells/well in 3 μL HEPES and 1% DMSO were seeded into 1536-well plates. 3 μL Calcium 5 was then added to each well and cells were incubated for 60 min. at 37° C. in 5% CO2 and 95% relative humidity. Cells were pretreated with 50 nL DMSO (5 min. at room temperature in the dark) to stabilize response and desensitize cells to DMSO. A 5 second basal read was recorded and compounds in 30 nL were added to the cells, followed by a 150 second read.
(§5) B. Antagonist Mode: The “High Control” represented wells containing cells with GPR139+Antagonist IC100+Agonist EC80. “Low Control” represented wells containing cells with GPR139 with EC100 Agonist. “0% control” and sample field represented wells containing cells with GPR139 with EC80 Agonist with DMSO or compounds. The Z′ and S:B for this assay were calculated using the High Control and Low Control wells.
as §1
(§6) The GPR139 Agonist and Antagonist titration assays employed the same reagents, protocols, and detection systems as the primary assays, but tested each as 10 point dose response starting at 676 nM concentration in triplicate with 1:3 dilutions. The HEK parental counterscreens utilized the same cells but not transfected with the plasmid. Acetylcholine was used in place of GPR139 agonist as the control compound. The cells were plated overnight, similar to the HEK antagonist counterscreen protocol.
as §2

[4] = target: T1, GPR139
Method: as §3, §4, §5, §1, §6, §2

[5] = target: T1, GPR139; assay: [3H]JNJ-63533054 radioligand competition binding assay on membranes of HEK293T/17 cells; set-up: HA signal peptide (HASP) (N); expressed in transfected cells; host or cells: HEK293T/17 cells (membrane preparation); conditions: for inhibition at 10 µM: 10 μM of the indicated compound, (10 μM) JNJ-63533054 as printed in title; for Ki: Ki=IC50/(1+C/Kd), membranes of HEK293T/17 cells expressing human GPR139, read-out: Ki ± SEM
Text: Eighteen compounds were selected for additional study. The compounds were re-synthesized and tested in radioligand binding competition assays for their ability to displace [^3H]-labeled reference agonist JNJ-63533054 on GPR139. The GPR139 construct used (pCDNA3.1-HASP-HA-GPR139) contained an N-terminal HA signal peptide (HASP), followed by an HA tag and human GPR139 (NM_001002911.4). HEK293T/17 cells were maintained in Dulbecco's modified Eagle's medium with 10% (v/v) fetal bovine serum, nonessential amino acids, and 1 mM sodium pyruvate.
Competition binding assay: Radioligand binding assay used human GPR139 expressed in HEK293T/17 cells. HEK293T/17 cells were transfected pCDNA3.1-HASP-HA-GPR139. 48 h after, cells were detached from plates by pipetting with PBS, centrifuged at 500×g for 5 min, and then the fluid was aspirated away. The cell pellets were frozen with liquid nitrogen and stored at −80° C. Pellets were homogenized in TE buffer (50 mM Tris-HCl, pH 7.4, 5 mM EDTA) and centrifuged at 1000×g at 4° C. for 5 min. Supernatant was collected and recentrifuged at 30,000×g at 4° C. for 30 min. The pellet was rehomogenized in TE buffer and incubated for 60 minutes at room temperature with eight concentrations of [^3H]JNJ-63533054 (specific activity 24.7 Ci/mmol) ranging from 0.024 nM to 400 nM. The binding reaction was terminated by filtration through GF/C filter (Waterman) followed by washes with cold TE buffer. Filters were dried in a hood overnight followed by the addition of scintillation fluid. Bound radioactivity was counted on a Hidex 600 liquid scintillation counter. […] Nonspecific binding was determined with 10 μM JNJ-63533054. The Kd values of the radioligands and IC50 of the antagonist were calculated by Graphpad Prism. Ki values were calculated as Ki=IC50/(1+C/Kd), where C is concentration of the radioligand.
Various concentrations of selected ligands were then added in the presence of 10 nM [^3H]-JNJ-63533054 and their ability to displace [^3H]labeling on cellular membranes was assessed. FIGS. 3B and 3C present representative data obtained in these experiments. […] The results of these experiments are presented in the Table 3 and confirm selective binding the compounds to GPR139 thereby validating their interaction with the intended target.

Compound | HEK antagonist activity Averaged Max % Response (±St. Dev.) [1] | GRP139 Agonist activity Averaged Max % Response (±St. Dev.) [2] | EC50 [2] | GPR139 Antagonist Activity Ligand Efficiency [3] | GPR139 Antagonist Activity Averaged Max % Response (±St. Dev.) [3] | GPR139 Antagonist Activity Hill Slope [3] | GPR139 Antagonist Activity Lipophilic Efficiency (logD) [4] | GPR139 Antagonist Activity Lipophilic Efficiency (logP) [4] | EC50 [1] | EC50 [3] | GPR139 Antagonist Activity Lipophilic Efficiency (logD) [3] | GPR139 Antagonist Activity Lipophilic Efficiency (logP) [3] | inhibition at 10 µM [5] | Ki [5]
CC(C)C(=O)N1CCN(c2nc(-c3ccccc3)c3c(c2C#N)CCCC3)CC1 [SR-01000000597] | 14.40 ± 10.68% | 3.20 ± 6.96% | > 11.2 µM | 0.24 | 54.78 ± 3.56% | 1.21 | −52.3E−3 | −52.4E−3 | – | – | – | – | – | –
Cc1cc(C(=O)N/N=C/c2cn(Cc3ccccc3)c3ccccc23)n[nH]1 [SR-01000110742] | 24.28 ± 7.95% | 8.07 ± 1.27% | > 14.1 µM | 0.28 | 90.37 ± 1.31% | 0.68 | 1.95 | 1.94 | – | – | – | – | – | –
O=C(Nc1ccccc1C(=O)O)c1ccc(Oc2ccc([N+](=O)[O-])cc2)cc1 [SR-01000201144] | 81.74 ± 3.36% | 19.36 ± 5.93% | > 14.1 µM | 0.27 | 67.66 ± 7.67% | 2.60 | 4.02 | 0.66 | – | – | – | – | – | –
COc1ccccc1CNC(=O)N1c2ccccc2Sc2ccccc21 [SR-01000506165] | 5.72 ± 9.39% | 7.66 ± 5.35% | > 14.6 µM | 0.30 | 86.87 ± 2.82% | 0.52 | – | – | > 14.6 µM | 2.8 µM | 1.14 | 1.14 | 103 ± 1.95% | 1.1 ± 0.02 µM
Nc1cccc(C(=O)Nc2cc(O)n(-c3c(Cl)cc(Cl)cc3Cl)n2)c1 [SR-01000514922] | 16.24 ± 5.67% | 1.17 ± 6.37% | > 14.7 µM | 0.28 | 80.63 ± 3.57% | 0.70 | – | – | > 14.7 µM | 8.6 µM | 1.63 | 0.55 | 21.8 ± 14.1% | 0.92 ± 0.02 µM
O=C(CSc1nc(-c2ccccc2)cn1-c1ccccc1)Nc1ccc(F)cc1 [SR-01000555394] | 31.37 ± 1.24% | −854E−3 ± 6.10 ^ % | > 14.5 µM | 0.25 | 71.06 ± 5.55% | 0.45 | −672.3E−3 | −672.4E−3 | – | – | – | – | – | –
COc1ccc(-n2cc(-c3ccccc3)nc2SCC(=O)Nc2ccccc2C)cc1 [SR-01000555409] | 31.02 ± 1.30% | −4.8E+0 ± 5.84 ^ % | > 13.6 µM | 0.24 | 86.26 ± 1.14% | 0.79 | −708.8E−3 | −708.9E−3 | – | – | – | – | – | –
COc1ccccc1-n1cc(-c2ccccc2)nc1SCC(=O)Nc1cccc(C)c1C [SR-01000555431] | 3.15 ± 12.32% | 12.88 ± 6.35% | > 13.2 µM | 0.26 | 78.69 ± 5.10% | 0.44 | −548.5E−3 | −548.6E−3 | – | – | – | – | – | –
Cc1ccc(-c2cn(-c3ccccc3)c(SCC(=O)Nc3ccccc3C)n2)cc1 [SR-01000555444] | 6.69 ± 8.37% | 4.27 ± 6.30% | > 11 µM | 0.24 | 69.32 ± 5.67% | 1.62 | −1.5E+0 | −1.5E+0 | – | – | – | – | – | –
Cc1ccc(-n2cc(-c3ccccc3)nc2SCC(=O)Nc2ccccc2)cc1 [SR-01000555455] | 6.61 ± 6.46% | 2.28 ± 5.10% | > 13.3 µM | 0.24 | 52.97 ± 3.58% | 0.71 | −1.3E+0 | −1.3E+0 | – | – | – | – | – | –
Cc1ccc(-n2cc(-c3ccccc3)nc2SCC(=O)Nc2cccc(C)c2C)cc1 [SR-01000555460] | 8.34 ± 10.04% | 7.97 ± 3.98% | > 11.9 µM | 0.24 | 69.58 ± 6.90% | 1.30 | −1.9E+0 | −1.9E+0 | – | – | – | – | – | –
CC1CCCC(NC(=O)c2cccc(NS(=O)(=O)c3ccc(Br)cc3)c2)C1C (stereo not drawn) [SR-01000594343] | 10.38 ± 17.91% | 16.98 ± 6.81% | > 14.1 µM | 0.26 | 64.21 ± 3.85% | −1.40 | – | – | > 14.1 µM | 7.7 µM | 0.51 | 0.36 | 87.2 ± 2.37% | 3.05 ± 0.07 µM
COc1ccc(-c2cccc(NS(=O)(=O)c3ccc(I)cc3)c2)nn1 [SR-01000914310] | 26.24 ± 12.88% | 7.64 ± 5.47% | > 14.1 µM | 0.29 | 72.33 ± 6.63% | 1.00 | – | – | > 14.1 µM | 6 µM | 1.70 | 1.56 | 72.2 ± 2.78% | 1.06 ± 0.02 µM
